In ChEMBL document CHEMBL1201862, “PubChem BioAssay data set” (2004):
Active and inactive are the calls of the source.

Columns and labels:
[1] = target: Transitional endoplasmic reticulum ATPase (Homo sapiens, UniProt P55072, C522A); assay: C522A mutant p97 ATPase inhibitors, dose response, counter-screen for p97 inhibitor project, biochemical, luminescence (AID 1544)
[2] = target: Photoreceptor-specific nuclear receptor (Homo sapiens, UniProt Q9Y5X4); type: functional;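 further: potency for compounds that break the NR2E3 corepressor complex and count as activators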
Sequence of Photoreceptor-specific nuclear receptor (Q9Y5X4 whole entry): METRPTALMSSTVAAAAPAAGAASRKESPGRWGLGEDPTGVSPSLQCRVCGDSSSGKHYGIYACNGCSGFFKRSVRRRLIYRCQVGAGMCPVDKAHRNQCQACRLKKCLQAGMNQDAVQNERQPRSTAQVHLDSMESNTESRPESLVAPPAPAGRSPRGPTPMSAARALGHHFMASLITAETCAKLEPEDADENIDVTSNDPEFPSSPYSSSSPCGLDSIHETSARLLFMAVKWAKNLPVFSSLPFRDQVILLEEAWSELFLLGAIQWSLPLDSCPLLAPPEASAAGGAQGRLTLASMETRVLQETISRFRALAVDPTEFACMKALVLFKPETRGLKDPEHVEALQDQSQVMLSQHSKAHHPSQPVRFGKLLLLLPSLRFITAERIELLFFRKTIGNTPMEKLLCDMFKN

Hexokinase HKDC1 = target: T1, Hexokinase HKDC1 (Homo sapiens, UniProt Q2TB90); assay: activation of HKDC1 glucose phosphorylation – biochemical, W721R variant, dose response (AID 504730); type: functional
T1 sequence (Q2TB90 whole entry): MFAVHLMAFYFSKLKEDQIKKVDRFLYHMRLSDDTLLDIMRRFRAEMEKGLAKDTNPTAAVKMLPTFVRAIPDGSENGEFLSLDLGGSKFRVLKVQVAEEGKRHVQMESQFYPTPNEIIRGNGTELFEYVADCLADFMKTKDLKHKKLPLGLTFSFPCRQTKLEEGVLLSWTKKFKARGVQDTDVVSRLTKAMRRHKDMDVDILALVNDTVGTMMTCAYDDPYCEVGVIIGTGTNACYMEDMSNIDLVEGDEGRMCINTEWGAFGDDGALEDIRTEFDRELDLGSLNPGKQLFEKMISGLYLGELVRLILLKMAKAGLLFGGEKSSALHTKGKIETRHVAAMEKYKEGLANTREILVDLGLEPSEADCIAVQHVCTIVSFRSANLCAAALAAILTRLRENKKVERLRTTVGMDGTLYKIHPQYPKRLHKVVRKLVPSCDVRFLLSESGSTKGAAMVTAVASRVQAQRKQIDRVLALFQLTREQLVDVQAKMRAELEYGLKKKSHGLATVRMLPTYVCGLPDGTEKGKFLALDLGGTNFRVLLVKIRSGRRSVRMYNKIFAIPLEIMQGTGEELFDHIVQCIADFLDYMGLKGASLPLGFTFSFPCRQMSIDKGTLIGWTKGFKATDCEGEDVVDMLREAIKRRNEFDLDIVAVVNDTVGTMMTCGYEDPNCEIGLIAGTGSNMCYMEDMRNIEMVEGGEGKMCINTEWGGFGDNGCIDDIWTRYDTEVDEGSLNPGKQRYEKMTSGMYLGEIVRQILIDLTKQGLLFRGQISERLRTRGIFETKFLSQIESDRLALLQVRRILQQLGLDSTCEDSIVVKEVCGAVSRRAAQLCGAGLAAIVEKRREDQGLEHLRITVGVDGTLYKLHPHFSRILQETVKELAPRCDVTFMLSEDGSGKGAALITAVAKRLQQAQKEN

[3] = target: DNA (cytosine-5)-methyltransferase 1 (Homo sapiens, UniProt P26358); assay: inhibition of DNA methylation by DNMT1 – biochemical, fluorescent molecular beacon, confirmation (AID 602386); type: functional
Sequence of DNA (cytosine-5)-methyltransferase 1 (P26358 whole entry): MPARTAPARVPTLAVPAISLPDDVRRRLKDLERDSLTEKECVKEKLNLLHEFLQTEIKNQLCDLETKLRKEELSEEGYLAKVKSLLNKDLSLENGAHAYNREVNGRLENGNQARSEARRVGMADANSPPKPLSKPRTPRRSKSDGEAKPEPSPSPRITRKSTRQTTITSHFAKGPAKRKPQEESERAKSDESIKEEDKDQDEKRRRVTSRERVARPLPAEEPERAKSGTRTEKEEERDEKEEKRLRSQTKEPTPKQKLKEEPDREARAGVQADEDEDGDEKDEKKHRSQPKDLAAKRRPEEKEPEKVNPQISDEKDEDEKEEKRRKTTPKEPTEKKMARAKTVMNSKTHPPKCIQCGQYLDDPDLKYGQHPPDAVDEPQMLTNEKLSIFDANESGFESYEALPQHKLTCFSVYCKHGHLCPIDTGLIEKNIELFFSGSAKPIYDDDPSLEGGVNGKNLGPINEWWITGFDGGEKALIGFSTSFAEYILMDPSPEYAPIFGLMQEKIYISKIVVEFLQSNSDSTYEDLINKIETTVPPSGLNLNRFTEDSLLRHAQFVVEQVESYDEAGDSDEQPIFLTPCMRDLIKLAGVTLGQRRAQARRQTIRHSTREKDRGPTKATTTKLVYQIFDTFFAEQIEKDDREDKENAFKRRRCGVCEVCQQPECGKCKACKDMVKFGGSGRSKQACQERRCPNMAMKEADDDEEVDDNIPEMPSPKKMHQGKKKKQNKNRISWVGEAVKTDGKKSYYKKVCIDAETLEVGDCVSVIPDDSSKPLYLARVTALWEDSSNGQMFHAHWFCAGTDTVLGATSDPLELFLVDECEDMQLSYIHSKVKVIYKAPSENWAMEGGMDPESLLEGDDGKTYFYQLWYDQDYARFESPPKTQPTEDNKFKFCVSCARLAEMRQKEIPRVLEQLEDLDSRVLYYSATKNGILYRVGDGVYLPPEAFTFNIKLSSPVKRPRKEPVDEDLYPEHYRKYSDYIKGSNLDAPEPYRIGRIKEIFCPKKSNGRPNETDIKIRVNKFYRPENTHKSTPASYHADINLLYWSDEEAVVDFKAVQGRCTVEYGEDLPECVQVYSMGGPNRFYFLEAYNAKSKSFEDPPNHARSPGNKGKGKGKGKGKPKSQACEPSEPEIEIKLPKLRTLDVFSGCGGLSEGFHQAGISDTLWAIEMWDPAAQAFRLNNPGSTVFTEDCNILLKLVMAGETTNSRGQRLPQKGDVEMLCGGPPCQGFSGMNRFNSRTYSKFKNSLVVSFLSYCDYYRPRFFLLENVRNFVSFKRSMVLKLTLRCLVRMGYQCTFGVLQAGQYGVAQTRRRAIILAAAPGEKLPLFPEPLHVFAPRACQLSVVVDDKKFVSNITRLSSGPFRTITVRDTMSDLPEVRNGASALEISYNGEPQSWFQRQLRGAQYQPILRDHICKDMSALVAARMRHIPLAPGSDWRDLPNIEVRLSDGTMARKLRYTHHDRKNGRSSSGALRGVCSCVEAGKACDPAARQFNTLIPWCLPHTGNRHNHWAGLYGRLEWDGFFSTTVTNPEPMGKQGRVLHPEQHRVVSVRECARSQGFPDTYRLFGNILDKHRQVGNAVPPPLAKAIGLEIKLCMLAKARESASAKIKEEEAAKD

[4] = loss of viability in HepG2 cells – cell-based, CellTiter-Glo, cherry-picked, cytotoxicity control for Shn3 inhibitor project, dose response (AID 624134); type: functional
[5] = Vero E6 cell cytotoxicity, dose response, cytotoxicity control for non-replicating M. tuberculosis project, secondary assay (AID 492998); type: functional, VeroE6; settings: Vero C1008

Sequence of Transitional endoplasmic reticulum ATPase (P55072 2-806 C522A limits assumed): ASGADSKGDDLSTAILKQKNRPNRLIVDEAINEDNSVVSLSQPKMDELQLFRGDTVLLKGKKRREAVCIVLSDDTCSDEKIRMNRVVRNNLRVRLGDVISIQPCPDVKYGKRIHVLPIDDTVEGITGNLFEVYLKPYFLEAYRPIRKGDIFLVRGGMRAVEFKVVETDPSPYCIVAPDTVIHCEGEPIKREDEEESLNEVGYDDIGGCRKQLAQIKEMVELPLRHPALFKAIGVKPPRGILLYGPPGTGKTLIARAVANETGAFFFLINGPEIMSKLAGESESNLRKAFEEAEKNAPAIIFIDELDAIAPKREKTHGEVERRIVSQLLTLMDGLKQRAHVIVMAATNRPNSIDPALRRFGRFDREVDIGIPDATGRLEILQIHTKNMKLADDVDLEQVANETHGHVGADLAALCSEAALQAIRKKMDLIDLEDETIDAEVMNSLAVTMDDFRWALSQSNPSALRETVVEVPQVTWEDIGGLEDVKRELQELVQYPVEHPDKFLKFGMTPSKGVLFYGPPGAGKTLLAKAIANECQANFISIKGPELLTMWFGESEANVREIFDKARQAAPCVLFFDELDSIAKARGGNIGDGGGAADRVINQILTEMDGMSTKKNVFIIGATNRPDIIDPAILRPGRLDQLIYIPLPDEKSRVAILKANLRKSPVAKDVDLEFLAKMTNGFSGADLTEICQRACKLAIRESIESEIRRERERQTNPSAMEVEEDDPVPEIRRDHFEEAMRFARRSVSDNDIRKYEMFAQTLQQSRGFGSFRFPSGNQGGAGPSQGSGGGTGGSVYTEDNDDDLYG

For `Cn1nc(-c2ccc(Cl)cc2)nc2c(=O)n(C)c(=O)nc1-2`, the IC50 [1] was > 50 µM (not active) and the IC50 [2] was > 39.8 µM (not active).

In the case of `SC1=Nc2ccccc2C1`, the EC50 (Hexokinase HKDC1) is reported as 18 µM (active).

For `NS(=O)(=O)c1ccc(NC(=O)COC(=O)c2ccc([N+](=O)[O-])s2)cc1`, the IC50 [3] was 25.1 µM (active).

In the case of `COc1ccc(C(NC(=O)C(C)C)c2ccc3cccnc3c2O)cc1` (stereo unspecified), the AC50 [4] is reported as 1.27 µM (active).

With `O=C(Cc1ccc([N+](=O)[O-])cc1)N/N=C/c1ccc([N+](=O)[O-])o1` the CC50 [5] was > 20 µM (active).
